Data taken from ChEMBL document CHEMBL4507265 (2021).

Experiments:
[1] = tested on: Serine/threonine-protein kinase B-raf (Homo sapiens), P15056 [V600E]; conditions: Compound concentration 1000.0 nM
[2] = molecular target: Fibroblast growth factor receptor 1 (Homo sapiens) (UniProt P11362); conditions: Compound concentration 1000.0 nM
[3] = tested on: Mast/stem cell growth factor receptor Kit (Homo sapiens), P10721 [L576P]; conditions: Compound concentration 1000.0 nM
[4] = molecular target: Non-receptor tyrosine-protein kinase TYK2 (Homo sapiens) (UniProt P29597); conditions: Compound concentration 1000.0 nM
[5] = molecular target: Myosin-IIIa (Homo sapiens) (UniProt Q8NEV4); conditions: Compound concentration 1000.0 nM
[6] = molecular target: Ephrin type-A receptor 5 (Homo sapiens) (UniProt P54756); conditions: Compound concentration 1000.0 nM
Chain of Ephrin type-A receptor 5 (Homo sapiens) (P54756 whole entry): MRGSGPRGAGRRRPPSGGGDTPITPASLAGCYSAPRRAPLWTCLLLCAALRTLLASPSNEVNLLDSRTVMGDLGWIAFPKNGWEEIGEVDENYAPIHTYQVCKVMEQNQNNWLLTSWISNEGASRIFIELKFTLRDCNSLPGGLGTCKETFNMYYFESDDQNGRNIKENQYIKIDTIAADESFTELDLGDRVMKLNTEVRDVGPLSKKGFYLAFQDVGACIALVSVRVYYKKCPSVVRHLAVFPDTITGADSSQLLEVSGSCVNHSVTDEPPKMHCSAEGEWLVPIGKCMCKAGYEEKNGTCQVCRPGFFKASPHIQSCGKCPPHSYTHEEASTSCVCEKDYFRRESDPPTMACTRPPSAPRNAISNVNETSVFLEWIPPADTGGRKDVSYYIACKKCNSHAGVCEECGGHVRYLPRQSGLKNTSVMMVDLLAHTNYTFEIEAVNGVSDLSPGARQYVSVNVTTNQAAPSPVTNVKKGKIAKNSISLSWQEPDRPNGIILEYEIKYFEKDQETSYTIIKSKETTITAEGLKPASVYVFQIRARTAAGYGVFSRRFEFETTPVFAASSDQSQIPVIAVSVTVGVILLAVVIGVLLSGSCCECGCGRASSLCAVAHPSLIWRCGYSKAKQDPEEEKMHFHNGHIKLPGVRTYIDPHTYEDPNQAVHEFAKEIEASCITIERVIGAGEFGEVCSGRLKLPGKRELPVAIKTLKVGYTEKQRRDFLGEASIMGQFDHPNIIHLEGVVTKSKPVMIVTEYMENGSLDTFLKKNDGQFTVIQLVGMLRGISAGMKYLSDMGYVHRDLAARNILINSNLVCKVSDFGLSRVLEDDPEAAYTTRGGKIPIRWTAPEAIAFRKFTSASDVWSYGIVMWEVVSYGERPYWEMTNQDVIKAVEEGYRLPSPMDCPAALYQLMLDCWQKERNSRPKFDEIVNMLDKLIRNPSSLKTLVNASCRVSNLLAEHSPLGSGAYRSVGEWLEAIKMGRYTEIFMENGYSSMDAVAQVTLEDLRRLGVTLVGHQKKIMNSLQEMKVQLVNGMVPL

[7] = molecular target: Ribosomal protein S6 kinase alpha-6 (Homo sapiens) (UniProt Q9UK32); conditions: Compound concentration 1000.0 nM
[8] = molecular target: Phosphatidylinositol 4-phosphate 5-kinase type-1 alpha (Homo sapiens) (UniProt Q99755); conditions: Compound concentration 1000.0 nM
Chain of Phosphatidylinositol 4-phosphate 5-kinase type-1 alpha (Homo sapiens) (Q99755 whole entry): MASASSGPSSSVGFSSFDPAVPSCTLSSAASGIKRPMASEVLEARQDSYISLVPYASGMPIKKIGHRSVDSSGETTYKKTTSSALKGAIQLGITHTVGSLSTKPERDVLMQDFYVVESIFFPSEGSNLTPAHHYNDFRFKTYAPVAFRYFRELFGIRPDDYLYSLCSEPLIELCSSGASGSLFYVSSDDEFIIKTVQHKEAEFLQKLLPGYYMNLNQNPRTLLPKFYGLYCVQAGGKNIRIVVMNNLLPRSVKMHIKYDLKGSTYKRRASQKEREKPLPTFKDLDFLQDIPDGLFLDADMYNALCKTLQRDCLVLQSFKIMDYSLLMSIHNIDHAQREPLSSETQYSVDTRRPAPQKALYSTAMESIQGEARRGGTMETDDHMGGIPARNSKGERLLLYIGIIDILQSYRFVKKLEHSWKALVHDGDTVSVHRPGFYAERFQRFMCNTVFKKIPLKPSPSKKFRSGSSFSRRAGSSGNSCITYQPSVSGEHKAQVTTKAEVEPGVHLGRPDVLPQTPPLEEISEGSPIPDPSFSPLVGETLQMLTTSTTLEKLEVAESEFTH

[9] = molecular target: SRSF protein kinase 3 (Homo sapiens) (UniProt Q9UPE1); conditions: Compound concentration 1000.0 nM
Chain of SRSF protein kinase 3 (Homo sapiens) (Q9UPE1 whole entry): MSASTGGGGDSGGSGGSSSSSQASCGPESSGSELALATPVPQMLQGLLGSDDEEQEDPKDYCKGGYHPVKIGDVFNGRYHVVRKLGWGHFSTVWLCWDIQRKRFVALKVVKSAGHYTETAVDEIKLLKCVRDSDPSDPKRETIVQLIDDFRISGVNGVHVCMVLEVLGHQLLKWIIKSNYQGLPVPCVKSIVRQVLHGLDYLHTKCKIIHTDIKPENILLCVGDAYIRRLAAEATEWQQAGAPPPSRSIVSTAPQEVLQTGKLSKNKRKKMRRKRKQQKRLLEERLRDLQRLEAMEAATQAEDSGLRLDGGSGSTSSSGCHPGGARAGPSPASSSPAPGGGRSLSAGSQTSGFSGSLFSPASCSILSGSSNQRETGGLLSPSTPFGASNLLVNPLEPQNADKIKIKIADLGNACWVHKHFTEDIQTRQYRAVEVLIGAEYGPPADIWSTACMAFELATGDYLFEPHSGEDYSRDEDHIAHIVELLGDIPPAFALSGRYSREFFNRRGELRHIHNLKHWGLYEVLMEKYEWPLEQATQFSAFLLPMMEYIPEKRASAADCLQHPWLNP

[10] = molecular target: Ribosomal protein S6 kinase alpha-3 (Homo sapiens) (UniProt P51812); conditions: Compound concentration 1000.0 nM
[11] = molecular target: Serine/threonine-protein kinase Nek11 (Homo sapiens) (UniProt Q8NG66); conditions: Compound concentration 1000.0 nM
[12] = tested on: Epidermal growth factor receptor (Homo sapiens), P00533 [L858R,T790M]; conditions: Compound concentration 1000.0 nM
[13] = molecular target: Ephrin type-A receptor 7 (Homo sapiens) (UniProt Q15375); conditions: Compound concentration 1000.0 nM
[14] = molecular target: Beta-1 adrenergic receptor (Homo sapiens) (UniProt P08588); conditions: Compound concentration 10.0 uM
[15] = molecular target: Fibroblast growth factor receptor 3 (Homo sapiens) (UniProt P22607); conditions: Compound concentration 1000.0 nM
[16] = molecular target: Calcium/calmodulin-dependent protein kinase type 1B (Homo sapiens) (UniProt Q6P2M8); conditions: Compound concentration 1000.0 nM
Chain of Calcium/calmodulin-dependent protein kinase type 1B (Homo sapiens) (Q6P2M8 whole entry): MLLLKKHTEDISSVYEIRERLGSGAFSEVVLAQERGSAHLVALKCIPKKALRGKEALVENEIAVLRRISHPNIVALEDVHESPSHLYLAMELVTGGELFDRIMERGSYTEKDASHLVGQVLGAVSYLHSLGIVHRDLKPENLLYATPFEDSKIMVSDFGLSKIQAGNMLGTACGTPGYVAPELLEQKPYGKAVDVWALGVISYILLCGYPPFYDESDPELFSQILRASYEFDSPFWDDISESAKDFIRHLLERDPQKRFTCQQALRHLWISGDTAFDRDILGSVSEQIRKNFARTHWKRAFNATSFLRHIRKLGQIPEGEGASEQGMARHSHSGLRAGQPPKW

[17] = molecular target: Serine/threonine-protein kinase RIO1 (Homo sapiens) (UniProt Q9BRS2); conditions: Compound concentration 1000.0 nM
[18] = molecular target: Receptor-interacting serine/threonine-protein kinase 4 (Homo sapiens) (UniProt P57078); conditions: Compound concentration 1000.0 nM
Chain of Receptor-interacting serine/threonine-protein kinase 4 (Homo sapiens) (P57078 whole entry): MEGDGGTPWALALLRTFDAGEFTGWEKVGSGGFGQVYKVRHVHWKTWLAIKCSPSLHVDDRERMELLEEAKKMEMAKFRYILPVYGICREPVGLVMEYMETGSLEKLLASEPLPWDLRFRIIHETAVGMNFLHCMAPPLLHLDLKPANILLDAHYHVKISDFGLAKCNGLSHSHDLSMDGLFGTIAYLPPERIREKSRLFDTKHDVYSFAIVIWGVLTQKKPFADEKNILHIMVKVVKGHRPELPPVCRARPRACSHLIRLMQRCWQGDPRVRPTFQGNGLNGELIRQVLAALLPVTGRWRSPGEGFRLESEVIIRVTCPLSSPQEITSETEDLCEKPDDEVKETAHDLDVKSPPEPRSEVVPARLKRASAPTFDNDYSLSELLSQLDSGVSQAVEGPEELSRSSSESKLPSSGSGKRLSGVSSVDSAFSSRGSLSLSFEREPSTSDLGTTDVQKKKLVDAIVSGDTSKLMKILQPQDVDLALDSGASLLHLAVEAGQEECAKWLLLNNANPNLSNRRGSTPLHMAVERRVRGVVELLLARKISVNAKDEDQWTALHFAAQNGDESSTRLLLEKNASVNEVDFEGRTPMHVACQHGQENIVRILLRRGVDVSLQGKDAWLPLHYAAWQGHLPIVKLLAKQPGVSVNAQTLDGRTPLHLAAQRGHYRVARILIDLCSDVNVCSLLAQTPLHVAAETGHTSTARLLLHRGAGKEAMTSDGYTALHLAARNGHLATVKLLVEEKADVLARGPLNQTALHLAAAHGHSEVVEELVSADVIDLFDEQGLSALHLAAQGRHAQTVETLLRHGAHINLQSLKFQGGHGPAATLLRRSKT

[19] = molecular target: Dual specificity protein kinase CLK3 (Homo sapiens) (UniProt P49761); conditions: Compound concentration 1000.0 nM
[20] = molecular target: Serine/threonine-protein kinase tousled-like 1 (Homo sapiens) (UniProt Q9UKI8); conditions: Compound concentration 1000.0 nM
[21] = molecular target: Dual specificity protein kinase CLK1 (Homo sapiens) (UniProt P49759); conditions: Compound concentration 1000.0 nM
[22] = molecular target: Focal adhesion kinase 1 (Homo sapiens) (UniProt Q05397); conditions: Compound concentration 1000.0 nM
[23] = molecular target: Mitogen-activated protein kinase kinase kinase 2 (Homo sapiens) (UniProt Q9Y2U5); conditions: Compound concentration 1000.0 nM
[24] = molecular target: Peripheral plasma membrane protein CASK (Homo sapiens) (UniProt O14936); conditions: Compound concentration 1000.0 nM
Chain of Peripheral plasma membrane protein CASK (Homo sapiens) (O14936 whole entry): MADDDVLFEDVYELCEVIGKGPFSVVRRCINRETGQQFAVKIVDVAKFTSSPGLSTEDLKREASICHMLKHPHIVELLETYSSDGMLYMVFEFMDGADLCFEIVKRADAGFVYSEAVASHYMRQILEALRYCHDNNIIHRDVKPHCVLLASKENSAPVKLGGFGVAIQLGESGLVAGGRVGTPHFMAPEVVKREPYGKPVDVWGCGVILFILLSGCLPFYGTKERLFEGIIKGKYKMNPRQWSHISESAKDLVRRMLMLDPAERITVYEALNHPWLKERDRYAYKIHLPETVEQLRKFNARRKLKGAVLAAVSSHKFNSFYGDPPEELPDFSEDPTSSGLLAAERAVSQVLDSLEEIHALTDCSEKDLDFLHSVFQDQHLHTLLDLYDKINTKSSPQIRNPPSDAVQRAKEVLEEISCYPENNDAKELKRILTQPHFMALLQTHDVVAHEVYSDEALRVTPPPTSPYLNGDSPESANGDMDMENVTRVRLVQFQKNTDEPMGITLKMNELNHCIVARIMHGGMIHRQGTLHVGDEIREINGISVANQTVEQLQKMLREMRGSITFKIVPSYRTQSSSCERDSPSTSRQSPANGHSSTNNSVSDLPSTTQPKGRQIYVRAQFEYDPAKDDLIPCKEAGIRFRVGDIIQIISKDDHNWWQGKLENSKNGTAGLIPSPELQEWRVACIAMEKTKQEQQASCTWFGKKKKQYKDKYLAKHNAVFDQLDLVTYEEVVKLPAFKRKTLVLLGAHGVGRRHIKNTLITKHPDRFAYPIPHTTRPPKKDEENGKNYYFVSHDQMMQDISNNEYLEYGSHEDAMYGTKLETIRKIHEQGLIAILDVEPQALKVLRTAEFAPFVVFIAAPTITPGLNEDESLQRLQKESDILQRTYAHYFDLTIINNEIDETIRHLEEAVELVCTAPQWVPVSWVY

[25] = molecular target: Serine/threonine-protein kinase WNK2 (Homo sapiens) (UniProt Q9Y3S1); conditions: Compound concentration 1000.0 nM
[26] = tested on: Tyrosine-protein kinase ABL1 (Homo sapiens), P00519 [Q252H]; conditions: Compound concentration 1000.0 nM
[27] = molecular target: Serine/threonine-protein kinase PAK 1 (Homo sapiens) (UniProt Q13153); conditions: Compound concentration 1000.0 nM
[28] = molecular target: Mitogen-activated protein kinase 6 (Homo sapiens) (UniProt Q16659); conditions: Compound concentration 1000.0 nM
[29] = tested on: Leucine-rich repeat serine/threonine-protein kinase 2 (Homo sapiens), Q5S007 [G2019S]; conditions: Compound concentration 1000.0 nM
[30] = molecular target: Tyrosine-protein kinase receptor TYRO3 (Homo sapiens) (UniProt Q06418); conditions: Compound concentration 1000.0 nM
[31] = molecular target: Mitogen-activated protein kinase kinase kinase 6 (Homo sapiens) (UniProt O95382); conditions: Compound concentration 1000.0 nM
[32] = molecular target: Cyclin-dependent kinase 13 (Homo sapiens) (UniProt Q14004); conditions: Compound concentration 1000.0 nM
[33] = molecular target: Interferon-induced, double-stranded RNA-activated protein kinase (Homo sapiens) (UniProt P19525); conditions: Compound concentration 1000.0 nM
[34] = molecular target: Serine/threonine-protein kinase D3 (Homo sapiens) (UniProt O94806); conditions: Compound concentration 1000.0 nM
[35] = molecular target: RAF proto-oncogene serine/threonine-protein kinase (Homo sapiens) (UniProt P04049); conditions: Compound concentration 1000.0 nM
[36] = tested on: Mast/stem cell growth factor receptor Kit (Homo sapiens), P10721 [D816H]; conditions: Compound concentration 1000.0 nM
[37] = molecular target: Activated CDC42 kinase 1 (Homo sapiens) (UniProt Q07912); conditions: Compound concentration 1000.0 nM
[38] = molecular target: Non-receptor tyrosine-protein kinase TNK1 (Homo sapiens) (UniProt Q13470); conditions: Compound concentration 1000.0 nM
[39] = molecular target: Casein kinase II subunit alpha (Homo sapiens) (UniProt P68400); conditions: Compound concentration 1000.0 nM
[40] = molecular target: Calcium/calmodulin-dependent protein kinase type II subunit delta (Homo sapiens) (UniProt Q13557); conditions: Compound concentration 1000.0 nM
[41] = molecular target: Serine/threonine-protein kinase MRCK gamma (Homo sapiens) (UniProt Q6DT37); conditions: Compound concentration 1000.0 nM
[42] = molecular target: Glycogen synthase kinase-3 alpha (Homo sapiens) (UniProt P49840); conditions: Compound concentration 1000.0 nM
[43] = molecular target: Serine/threonine-protein kinase DCLK1 (Homo sapiens) (UniProt O15075); conditions: Compound concentration 1000.0 nM
Chain of Serine/threonine-protein kinase DCLK1 (Homo sapiens) (O15075 whole entry): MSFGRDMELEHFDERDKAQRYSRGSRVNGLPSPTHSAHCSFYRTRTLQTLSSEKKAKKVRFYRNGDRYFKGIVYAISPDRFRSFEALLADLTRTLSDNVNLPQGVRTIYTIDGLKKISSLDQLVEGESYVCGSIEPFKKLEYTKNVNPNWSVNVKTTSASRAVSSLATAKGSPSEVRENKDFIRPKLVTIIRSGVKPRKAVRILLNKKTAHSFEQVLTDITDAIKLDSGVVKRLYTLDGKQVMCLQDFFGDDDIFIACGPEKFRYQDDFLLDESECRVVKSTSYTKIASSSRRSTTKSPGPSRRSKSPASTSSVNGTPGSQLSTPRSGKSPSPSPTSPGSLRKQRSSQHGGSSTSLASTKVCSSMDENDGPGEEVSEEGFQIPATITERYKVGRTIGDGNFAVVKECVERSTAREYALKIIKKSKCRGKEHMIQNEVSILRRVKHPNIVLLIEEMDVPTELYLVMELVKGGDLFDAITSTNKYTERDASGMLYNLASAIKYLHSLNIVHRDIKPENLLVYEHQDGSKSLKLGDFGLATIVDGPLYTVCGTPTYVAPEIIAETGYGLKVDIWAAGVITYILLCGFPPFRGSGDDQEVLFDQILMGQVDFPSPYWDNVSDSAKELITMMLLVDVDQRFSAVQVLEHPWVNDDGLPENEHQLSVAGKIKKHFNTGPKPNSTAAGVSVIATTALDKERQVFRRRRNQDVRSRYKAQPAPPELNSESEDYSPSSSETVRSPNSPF

[44] = molecular target: Protein kinase C eta type (Homo sapiens) (UniProt P24723); conditions: Compound concentration 1000.0 nM
[45] = molecular target: G protein-coupled receptor kinase 4 (Homo sapiens) (UniProt P32298); conditions: Compound concentration 1000.0 nM

NS(=O)(=O)c1cc(NC(=O)Cc2ccccc2)ccc1Oc1cccc(Cl)c1 [BAY-1797]
residual activity [1]: 89% | residual activity [2]: 100% | residual activity [3]: 78% | residual activity [4]: 90% | residual activity [5]: 100% | residual activity [6]: 62% | residual activity [7]: 59% | residual activity [8]: 100% | residual activity [9]: 100% | residual activity [10]: 98% | residual activity [11]: 100% | residual activity [12]: 75% | residual activity [13]: 92% | inhibition [14]: 14.3% | residual activity [15]: 86% | residual activity [16]: 83% | residual activity [17]: 93% | residual activity [18]: 83% | residual activity [19]: 83% | residual activity [20]: 99% | residual activity [21]: 67% | residual activity [22]: 96% | residual activity [23]: 84% | residual activity [24]: 86% | residual activity [25]: 0% | residual activity [26]: 55% | residual activity [27]: 88% | residual activity [28]: 98% | residual activity [29]: 100% | residual activity [30]: 76% | residual activity [31]: 72% | residual activity [32]: 92% | residual activity [33]: 80% | residual activity [34]: 100% | residual activity [35]: 100% | residual activity [36]: 76% | residual activity [37]: 79% | residual activity [38]: 74% | residual activity [39]: 96% | residual activity [40]: 97% | residual activity [41]: 100% | residual activity [42]: 93% | residual activity [43]: 86% | residual activity [44]: 93% | residual activity [45]: 100%

NS(=O)(=O)c1cc(NC(=O)C2(c3ccccc3Cl)CC2)ccc1Oc1cccc(Cl)c1 [BAY-207]
residual activity [1]: 74% | residual activity [2]: 100% | residual activity [3]: 89% | residual activity [4]: 100% | residual activity [5]: 93% | residual activity [6]: 79% | residual activity [7]: 96% | residual activity [8]: 100% | residual activity [9]: 80% | residual activity [10]: 92% | residual activity [11]: 100% | residual activity [12]: 88% | residual activity [13]: 82% | inhibition [14]: -3.09% | residual activity [15]: 100% | residual activity [16]: 100% | residual activity [17]: 84% | residual activity [18]: 100% | residual activity [19]: 72% | residual activity [20]: 99% | residual activity [21]: 59% | residual activity [22]: 87% | residual activity [23]: 100% | residual activity [24]: 89% | residual activity [25]: 88% | residual activity [26]: 71% | residual activity [27]: 79% | residual activity [28]: 100% | residual activity [29]: 100% | residual activity [30]: 100% | residual activity [31]: 100% | residual activity [32]: 100% | residual activity [33]: 100% | residual activity [34]: 85% | residual activity [35]: 81% | residual activity [36]: 86% | residual activity [37]: 82% | residual activity [38]: 100% | residual activity [39]: 100% | residual activity [40]: 100% | residual activity [41]: 82% | residual activity [42]: 90% | residual activity [43]: 68% | residual activity [44]: 100% | residual activity [45]: 100%
